# Test results published in ChEMBL document CHEMBL5038611, “Design, synthesis and bioevaluation of 6-aryl-1-(3,4,5-trimethoxyphenyl)-1H-benzo[d]imidazoles as tubulin polymerization inhibitors” (Eur J Med Chem, 2021).
# Active and inactive are the calls of the source. No cut-off for these calls is given here.
# Legend:
# [1] = tested on: MCF7; experiment: Antiproliferative activity against human MCF7 cells assessed as reduction in cell viability incubated for 72 hrs by MTT assay; format: functional, cell-based; conditions: MCF7, 72 h
# [2] = tested on: SGC-7901; experiment: Antiproliferative activity against human SGC-7901 cells assessed as reduction in cell viability incubated for 72 hrs by MTT assay; format: functional, cell-based; conditions: SGC-7901, 72 h
# [3] = tested on: A549; experiment: Antiproliferative activity against human A549 cells assessed as reduction in cell viability incubated for 72 hrs by MTT assay; format: functional, cell-based; conditions: A549, 72 h
# [4] = Toxicity in BALB/c nude mouse xenografted with human MCF7 cells assessed as effect on spleen at 10 mg/kg, iv administered every 2 days for 2 weeks; format: organism-based; conditions: in vivo, 336 h
# [5] = Toxicity in BALB/c nude mouse xenografted with mouse 4T1 cells assessed as body weight loss at 2.5 mg/kg, iv administered every 2 days for 2 weeks relative to control; format: organism-based; conditions: in vivo, 336 h
# [6] = tested on: MCF7; experiment: Induction of apoptosis in human MCF7 cells assessed as viable cells at 3 fold IC50 after 48 hrs by Annexin-V-FITC/PI-staining based flow cytometric analysis (reference value: 96.2%); format: functional
# [7] = tested on: MCF7; experiment: Induction of apoptosis in human MCF7 cells assessed as necrotic cells at 2 fold IC50 after 48 hrs by Annexin-V-FITC/PI-staining based flow cytometric analysis (reference value: 1.61%); format: functional
# [8] = Toxicity in BALB/c nude mouse xenografted with human MCF7 cells assessed as effect on heart at 2.5 mg/kg, iv administered every 2 days for 2 weeks; format: organism-based; conditions: in vivo, 336 h
# [9] = tested on: MCF7; experiment: Induction of cell cycle arrest in human MCF7 cells assessed as accumulation of cells at G2/M phase at 1 fold IC50 measured after 24 hrs by flow cytometry (reference value: 11 %); format: functional
# [10] = Toxicity in BALB/c nude mouse xenografted with human MCF7 cells assessed as effect on spleen at 2.5 mg/kg, iv administered every 2 days for 2 weeks; format: organism-based; conditions: in vivo, 336 h
# [11] = tested on: MCF7; experiment: Induction of apoptosis in human MCF7 cells assessed as late apoptotic cells at 2 fold IC50 after 48 hrs by Annexin-V-FITC/PI-staining based flow cytometric analysis (reference value: 0.556%); format: functional
# [12] = tested on: MCF7; experiment: Induction of apoptosis in human MCF7 cells assessed as early apoptotic cells at 2 fold IC50 after 48 hrs by Annexin-V-FITC/PI-staining based flow cytometric analysis (reference value: 1.59%); format: functional
# [13] = tested on: MCF7; experiment: Induction of cell cycle arrest in human MCF7 cells assessed as accumulation of cells at G2/M phase at 0.5 fold IC50 measured after 24 hrs by flow cytometry (reference value: 11 %); format: functional
# [14] = tested on: MCF7; experiment: Induction of apoptosis in human MCF7 cells assessed as necrotic cells at 1 fold IC50 after 48 hrs by Annexin-V-FITC/PI-staining based flow cytometric analysis (reference value: 1.61%); format: functional
# [15] = tested on: MCF7; experiment: Inhibition of cell migration in human MCF7 cells measured after 24 hrs by phase-contrast microscopy based wound healing assay; format: functional; conditions: dose 25-50 nM
# [16] = organism: Sus scrofa; experiment: Inhibition of porcine brain tubulin polymerization measured every 1 min for 90 mins by microplate based assay in the presence of GTP
# [17] = tested on: MCF7; experiment: Induction of cell cycle arrest in human MCF7 cells assessed as accumulation of cells at G2/M phase at 2 fold IC50 measured after 24 hrs by flow cytometry (reference value: 11 %); format: functional
# [18] = tested on: MCF7; experiment: Induction of apoptosis in human MCF7 cells assessed as viable cells at 1 fold IC50 after 48 hrs by Annexin-V-FITC/PI-staining based flow cytometric analysis (reference value: 96.2%); format: functional
# [19] = biological target: T1, Tubulin (Homo sapiens) (UniProt P68371+Q9H4B7+P0DPH7+P68366+Q13509+Q71U36+P04350+Q3ZCM7+P07437+P68363+Q9BQE3+Q6PEY2+Q13885+Q9BVA1+Q9BUF5); experiment: Inhibition of microtubule polymerization in human MCF7 cells assessed as disorganisation of microtubule by measuring short and wrapped structure at 2 times IC50 incubated for 24 hrs by DAPI staining based immunofluorescence assay; format: cell-based
# [20] = Toxicity in BALB/c nude mouse xenografted with human MCF7 cells assessed as effect on liver at 2.5 mg/kg, iv administered every 2 days for 2 weeks; format: organism-based; conditions: in vivo, 336 h
# [21] = Toxicity in BALB/c nude mouse xenografted with human MCF7 cells assessed as effect on kidney at 2.5 mg/kg, iv administered every 2 days for 2 weeks; format: organism-based; conditions: in vivo, 336 h
# [22] = tested on: MCF7; experiment: Induction of apoptosis in human MCF7 cells assessed as late apoptotic cells at 1 fold IC50 after 48 hrs by Annexin-V-FITC/PI-staining based flow cytometric analysis (reference value: 0.556%); format: functional
# [23] = tested on: MCF7; experiment: Induction of apoptosis in human MCF7 cells assessed as necrotic cells at 3 fold IC50 after 48 hrs by Annexin-V-FITC/PI-staining based flow cytometric analysis (reference value: 1.61%); format: functional
# [24] = tested on: MCF7; experiment: Induction of apoptosis in human MCF7 cells assessed as early apoptotic cells at 1 fold IC50 after 48 hrs by Annexin-V-FITC/PI-staining based flow cytometric analysis (reference value: 1.59%); format: functional
# [25] = tested on: MCF7; experiment: Induction of apoptosis in human MCF7 cells assessed as viable cells at 2 fold IC50 after 48 hrs by Annexin-V-FITC/PI-staining based flow cytometric analysis (reference value: 96.2%); format: functional
# [26] = tested on: 4T1; experiment: Antitumor activity against mouse 4T1 cells xenografted in BALB/c mouse assessed as reduction in tumor weight at 2.5 mg/kg, iv administered every 2 days for 2 weeks; format: functional; set-up: scale not given: the % may be the effect or the level left
# [27] = biological target: T1, Tubulin (Homo sapiens); experiment: Binding affinity to colchicine binding site of tubulin (unknown origin) assessed as decrease in fluorescence of colchicine-tubulin complex by fluorescence based assay; format: protein-complex assay
# [28] = tested on: MCF7; experiment: Induction of apoptosis in human MCF7 cells assessed as late apoptotic cells at 3 fold IC50 after 48 hrs by Annexin-V-FITC/PI-staining based flow cytometric analysis (reference value: 0.556%); format: functional
# [29] = tested on: MCF7; experiment: Induction of apoptosis in human MCF7 cells assessed as early apoptotic cells at 3 fold IC50 after 48 hrs by Annexin-V-FITC/PI-staining based flow cytometric analysis (reference value: 1.59%); format: functional
structure (smiles),measurement,setting,value
COc1cc(-n2cnc3ccc(-c4cccc(O)c4)cc32)cc(OC)c1OC,IC50,[1],0.35 µM
same,IC50,[2],0.053 µM
same,IC50,[3],0.25 µM
CCOc1ccc(-c2ccc3ncn(-c4cc(OC)c(OC)c(OC)c4)c3c2)cc1,IC50,[1],1.71 µM
same,IC50,[2],2.97 µM
same,IC50,[3],8.55 µM
COc1cc(-n2cnc3ccc(-c4ccc(Cl)cc4)cc32)cc(OC)c1OC,IC50,[1],1.32 µM
same,IC50,[2],1.27 µM
same,IC50,[3],> 10 µM
COc1ccccc1-c1ccc2ncn(-c3cc(OC)c(OC)c(OC)c3)c2c1,IC50,[1],1.75 µM
same,IC50,[2],5.05 µM
same,IC50,[3],4.32 µM
COc1cc(-n2cnc3ccc(-c4cccc(C)c4C)cc32)cc(OC)c1OC,IC50,[1],2.15 µM
same,IC50,[2],3.04 µM
same,IC50,[3],9.25 µM
COc1cc(-n2cnc3ccc(-c4ccc(F)cc4)cc32)cc(OC)c1OC,IC50,[1],1.77 µM
same,IC50,[2],3.5 µM
same,IC50,[3],6.74 µM
COc1cc(-n2cnc3ccc(-c4ccccc4Cl)cc32)cc(OC)c1OC,IC50,[1],> 10 µM
same,IC50,[2],> 10 µM
same,IC50,[3],> 10 µM
Nc1ccn([C@@H]2O[C@H](CO)[C@@H](O)C2(F)F)c(=O)n1 [GEMCITABINE],Activity,[4],Toxic
COc1cc(-n2cnc3ccc(-c4ccc(C(C)=O)cc4)cc32)cc(OC)c1OC,IC50,[1],1.54 µM
same,IC50,[2],0.45 µM
same,IC50,[3],2.51 µM
COc1ccc(-c2ccc3ncn(-c4cc(OC)c(OC)c(OC)c4)c3c2)cc1F,IC50,[1],0.52 µM
same,IC50,[2],0.43 µM
same,IC50,[3],1.43 µM
COc1cc(-n2cnc3ccc(-c4ccc(Cl)cc4Cl)cc32)cc(OC)c1OC,IC50,[1],5.42 µM
same,IC50,[2],> 10 µM
same,IC50,[3],> 10 µM
COc1cc(-n2cnc3ccc(-c4ccccc4)cc32)cc(OC)c1OC,IC50,[1],2.29 µM
same,IC50,[2],0.29 µM
same,IC50,[3],3.06 µM
COc1cc(-n2cnc3ccc(-c4ccc(O)cc4)cc32)cc(OC)c1OC,IC50,[1],4.16 µM
same,IC50,[2],> 10 µM
same,IC50,[3],5.09 µM
COc1cc(-n2cnc3ccc(-c4cc(F)ccc4F)cc32)cc(OC)c1OC,IC50,[1],6.42 µM
same,IC50,[2],6.59 µM
same,IC50,[3],7.94 µM
COc1ccc(-c2ccc3ncn(-c4cc(OC)c(OC)c(OC)c4)c3c2)cc1O,Activity,[5],Non-Toxic
same,Activity,[6],50.6%
same,Activity,[7],0.96%
same,IC50,[1],0.037 µM
same,Activity,[8],Non-Toxic
same,Activity,[9],22%
same,Activity,[10],Non-Toxic
same,Activity,[11],10.4%
same,Activity,[12],35.6%
same,Activity,[13],15%
same,Activity,[14],1.51%
same,inhibition,[15],Dose-Dependent Effect
same,inhibition,[16],Dose-Dependent Effect
same,Activity,[17],72%
same,Activity,[18],75.1%
same,inhibition,[19],Active
same,Activity,[20],Non-Toxic
same,Activity,[21],Non-Toxic
same,IC50,[2],0.044 µM
same,Activity,[22],4.4%
same,Activity,[23],0.271%
same,Activity,[24],16%
same,Activity,[25],52.8%
same,Activity,[26],52%
same,IC50,[3],0.2 µM
same,Activity,[27],Active
same,Activity,[28],11.4%
same,Activity,[29],37.6%
COc1cc(-n2cnc3ccc(-c4ccc([N+](=O)[O-])cc4)cc32)cc(OC)c1OC,IC50,[1],0.74 µM
same,IC50,[2],0.079 µM
same,IC50,[3],8.94 µM
COc1cc(-n2cnc3ccc(-c4cccc(F)c4)cc32)cc(OC)c1OC,IC50,[1],2.35 µM
same,IC50,[2],2.49 µM
same,IC50,[3],5.27 µM
COc1cc(-n2cnc3ccc(-c4ccc(C)cc4)cc32)cc(OC)c1OC,IC50,[1],0.11 µM
same,IC50,[2],0.2 µM
same,IC50,[3],1.94 µM
COc1cc(-c2ccc3ncn(-c4cc(OC)c(OC)c(OC)c4)c3c2)cc(OC)c1OC,IC50,[1],> 10 µM
same,IC50,[2],> 10 µM
same,IC50,[3],> 10 µM
COc1cccc(-c2ccc3ncn(-c4cc(OC)c(OC)c(OC)c4)c3c2)c1,IC50,[1],1.61 µM
same,IC50,[2],3.31 µM
same,IC50,[3],3.18 µM
COc1cc(-n2cnc3ccc(-c4ccc(C)cc4F)cc32)cc(OC)c1OC,IC50,[1],0.056 µM
same,IC50,[2],5.65 µM
same,IC50,[3],> 10 µM
COc1cc(-n2cnc3ccc(-c4cccc(C)c4)cc32)cc(OC)c1OC,IC50,[1],0.36 µM
same,IC50,[2],1.24 µM
same,IC50,[3],3.82 µM
COc1ccc(-c2ccc3ncn(-c4cc(OC)c(OC)c(OC)c4)c3c2)cc1,IC50,[1],0.21 µM
same,IC50,[2],0.082 µM
same,IC50,[3],> 10 µM
COc1cc(-n2cnc3ccc(-c4cccc(N)c4)cc32)cc(OC)c1OC,IC50,[1],0.18 µM
same,IC50,[2],0.021 µM
same,IC50,[3],0.64 µM
COc1cc(-n2cnc3ccc(-c4cccc(Cl)c4)cc32)cc(OC)c1OC,IC50,[1],3.12 µM
same,IC50,[2],1.49 µM
same,IC50,[3],7.05 µM
COc1cc(-n2cnc3ccc(-c4ccc(C(F)(F)F)cc4)cc32)cc(OC)c1OC,IC50,[1],0.76 µM
same,IC50,[2],0.89 µM
same,IC50,[3],3.39 µM
COc1cc2c(c(OC)c1OC)-c1ccc(OC)c(=O)cc1[C@@H](NC(C)=O)CC2 [COLCHICINE],IC50,[1],0.018 µM
same,IC50,[2],0.007 µM
same,IC50,[3],0.095 µM
COc1cc(-n2cnc3ccc(-c4cccc([N+](=O)[O-])c4)cc32)cc(OC)c1OC,IC50,[1],4.56 µM
same,IC50,[2],0.38 µM
same,IC50,[3],5.41 µM
